# Measured values: patent US20020137929A1, “1 - (3-heterocyclylphenyl) isothiourea, -isourea, -guanidine and -amidine herbicidal agents” (Intellectual Property Department, BASF Aktiengesellschaft, priority 1998, published 2002)
# Experiments:
# CASOB (Sicklepod) = experiment: Postemergence herbicidal evaluation; format: in vivo, Cassia obtusifolia; settings: for CASOB herbicidal rating / Herbicidal rating CASOB: postemergence
# In short: (§1)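 Two-week seedlings sprayed postemergence at 40 psi; formulation: 1:1 acetone/water, 0.5% TWEEN 20; application ≈0.0156–0.500 kg/ha. Greenhouse grow-out, then 0–9 visual scoring at 4–5 weeks.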
# [1] = tested on: CHEAL (Lambsquarters, Common); experiment: Postemergence herbicidal evaluation; format: in vivo, Chenopodium album; settings: for CHEAL herbicidal rating / Herbicidal rating CHEAL: postemergence
# In short: as §1
# [2] = tested on: TRZAWR (Wheat, Winter, cv Riband); experiment: Postemergence herbicidal evaluation; format: in vivo, Triticum aestivum; settings: for TRZAWR herbicidal rating / Herbicidal rating TRZAWR: postemergence
# In short: as §1
# [3] = tested on: CHEAL (Lambsquarters, Common); experiment: Preemergence herbicidal evaluation; format: in vivo, Chenopodium album; settings: rated 4-5 weeks after treatment
# In short: (§2)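 Sown cups got a single aqueous acetone spray of test compound (roughly 0.0156–0.500 kg/ha) before seedlings emerged. Evaluation, 4–5 weeks on, used a 0–9 visual scale covering plant stand, vigor, size, malformation, chlorosis and general appearance compared with controls.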
# ORYSAT (Rice, Tebonnet) [4] = experiment: Preemergence herbicidal evaluation; format: in vivo, Oryza sativa, (L.) Tebonnet; settings: rated 4-5 weeks after treatment
# In short: as §2
# ORYSAT (Rice, Tebonnet) [5] = experiment: Rice tolerance to post-transplant applications, flooded paddy conditions (Table III); format: in vivo, Oryza sativa, (L.) Tebonnet; settings: for ORYSAT herbicidal effect rating (rice tolerance) / herbicidal effect rating, ORYSAT (rice tolerance): in vivo; for Herbicidal rating ORYSAT (rice tolerance): post-transplant rice, flooded paddy, rated 3-4 weeks after treatment
# In short: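 Injury scored 0-9 by eye against untreated control, judging stand, vigor, malformation, size and chlorosis, three to four weeks after treatment. Compound in 50/50 aqueous/acetone, about 0.0313 to 0.500 kg/ha, was applied to paddy water (1.5 to 3 cm depth) three days after transplanting paired ten-day-old Tebonnet rice seedlings.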
# ORYSAT (Rice, Tebonnet) [6] = experiment: Rice tolerance to post-transplant applications, flooded paddy conditions (Table IV); format: in vivo, Oryza sativa, (L.) Tebonnet
# Text: Results of herbicide evaluation are expressed on a rating scale (0-9). The scale is based upon a visual observation of plant stand, vigor, malformation, size, chlorosis and overall plant appearance as compared with a control.
# Plastic containers containing weeds which are 3 to 5 cm tall and rice seedlings at the 1.5 to 2.5 leaf stage are flooded with water. The water is maintained at 1.5 to 3 cm above the soil surface for the duration of the experiment. Test compounds are applied as aqueous/ acetone mixtures 50/50 v/v directly into the flood water to provide the equivalent of about 0.0313 to 0.500 kg/ha of active ingredient. The treated containers are placed on greenhouse benches and cared for in accordance with conventional greenhouse procedures. Three to four weeks after treatment, the test is terminated and each container is examined and herbicidal effect rated according to the rating system provided in Example 37. The compounds evaluated are reported by compound number given in Example 37.
# MOOVA (Monochoria) = experiment: Postemergence weed control under flooded paddy conditions; format: in vivo, Monochoria vaginalis; settings: postemergence weeds, 3-4 weeks after treatment
# In short: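 Flood-water application, about 0.0313–0.500 kg/ha a.i. in aqueous/acetone 50/50 v/v; water depth 1.5–3 cm throughout. Weeds 3–5 cm, rice 1.5–2.5 leaf. Greenhouse; 0–9 visual rating vs control at 3–4 wk.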
# [7] = rate 0.0313 kg/ha, rating scale 0-9
# [8] = rate 0.0625 kg/ha, rating scale 0-9
# [9] = rate 0.1250 kg/ha, rating scale 0-9
# [10] = rate 0.2500 kg/ha, rating scale 0-9
# [11] = rate 0.0156 kg/ha, rating scale 0-9
molecule,measurement,setting,value
"CC(C)C[C@@H](C(=O)O)N1C(=O)CSC1=Nc1cc(-n2c(=O)cc(C(F)(F)F)n(C)c2=O)c(F)cc1Cl [Compound 71, α-Isobutyl-2-{{2-chloro-5-[3,6-dihydro-3-methyl-2,6-dioxo-4-(trifluoromethyl)-1(2H)-pyrimidinyl]-4-fluorophenyl}imino}-4-oxo-3-thiazolidineacetic acid, L-]",CASOB herbicidal rating,CASOB (Sicklepod); rate 0.0158 kg/ha,2.0
same,CASOB herbicidal rating,CASOB (Sicklepod); rate 0.0315 kg/ha,3.0
same,CASOB herbicidal rating,CASOB (Sicklepod); rate 0.0630 kg/ha,4.0
same,CHEAL herbicidal rating,[1]; rate 0.0158 kg/ha,6.0
same,CHEAL herbicidal rating,[1]; rate 0.0315 kg/ha,7.0
same,TRZAWR herbicidal rating,[2]; rate 0.0158 kg/ha,2.5
same,TRZAWR herbicidal rating,[2]; rate 0.0315 kg/ha,3.5
same,TRZAWR herbicidal rating,[2]; rate 0.0630 kg/ha,4.5
same,Preemergence herbicidal rating CHEAL,[3]; rate 0.0156 kg/ha,3.0
same,Preemergence herbicidal rating CHEAL,[3]; rate 0.0313 kg/ha,9.0
same,Preemergence herbicidal rating CHEAL,[3]; rate 0.0625 kg/ha,9.0
same,Preemergence herbicidal rating CHEAL,[3]; rate 0.1250 kg/ha,9.0
same,Preemergence herbicidal rating CHEAL,[3]; rate 0.2500 kg/ha,9.0
same,Preemergence herbicidal rating ORYSAT,"ORYSAT (Rice, Tebonnet) [4]; rate 0.0156 kg/ha",0.0
same,Preemergence herbicidal rating ORYSAT,"ORYSAT (Rice, Tebonnet) [4]; rate 0.0313 kg/ha",0.0
same,Preemergence herbicidal rating ORYSAT,"ORYSAT (Rice, Tebonnet) [4]; rate 0.0625 kg/ha",0.0
same,Preemergence herbicidal rating ORYSAT,"ORYSAT (Rice, Tebonnet) [4]; rate 0.1250 kg/ha",1.0
same,Preemergence herbicidal rating ORYSAT,"ORYSAT (Rice, Tebonnet) [4]; rate 0.2500 kg/ha",3.0
same,ORYSAT herbicidal effect rating (rice tolerance),"ORYSAT (Rice, Tebonnet) [5]",4.0
same,Herbicidal rating ORYSAT (rice tolerance),"ORYSAT (Rice, Tebonnet) [6]; in vivo",4.0
"CCOC(=O)CN1CC(=O)N(CC(=O)OCC)C1=Nc1cc(-n2c(=O)cc(C(F)(F)F)n(C)c2=O)c(F)cc1Cl [Compound 34, 2-{{2-Chloro-5-[3,6-dihydro-3-methyl-2,6-dioxo-4-(trifluoromethyl)-1(2H)-pyrimidinyl]-4-fluoro-phenyl}imino}-4-oxo-1,3-imidazolidinediacetic acid, diethyl ester]",Postemergence herbicidal rating CASOB,CASOB (Sicklepod); Rate 0.0158 kg/ha,0.0
same,Postemergence herbicidal rating CASOB,CASOB (Sicklepod); Rate 0.0315 kg/ha,0.0
same,Postemergence herbicidal rating CASOB,CASOB (Sicklepod); Rate 0.0630 kg/ha,0.0
same,Postemergence herbicidal rating CHEAL,[1]; Rate 0.0158 kg/ha,7.0
same,Postemergence herbicidal rating CHEAL,[1]; Rate 0.0315 kg/ha,9.0
same,Postemergence herbicidal rating CHEAL,[1]; Rate 0.0630 kg/ha,9.0
same,Postemergence herbicidal rating TRZAWR,[2]; Rate 0.0158 kg/ha,4.0
same,Postemergence herbicidal rating TRZAWR,[2]; Rate 0.0315 kg/ha,4.0
same,Postemergence herbicidal rating TRZAWR,[2]; Rate 0.0630 kg/ha,5.0
same,Preemergence herbicidal rating CHEAL,[3]; rate 0.0313 kg/ha,9.0
same,Preemergence herbicidal rating CHEAL,[3]; rate 0.0625 kg/ha,9.0
same,Preemergence herbicidal rating CHEAL,[3]; rate 0.1250 kg/ha,9.0
same,Preemergence herbicidal rating CHEAL,[3]; rate 0.2500 kg/ha,9.0
same,Preemergence herbicidal rating ORYSAT,"ORYSAT (Rice, Tebonnet) [4]; rate 0.0313 kg/ha",0.0
same,Preemergence herbicidal rating ORYSAT,"ORYSAT (Rice, Tebonnet) [4]; rate 0.0625 kg/ha",0.0
same,Preemergence herbicidal rating ORYSAT,"ORYSAT (Rice, Tebonnet) [4]; rate 0.1250 kg/ha",2.0
same,Preemergence herbicidal rating ORYSAT,"ORYSAT (Rice, Tebonnet) [4]; rate 0.2500 kg/ha",5.0
same,Herbicidal rating ORYSAT (rice tolerance),"ORYSAT (Rice, Tebonnet) [5]; 0.0313 kg/ha",3.0
same,Herbicidal rating ORYSAT (rice tolerance),"ORYSAT (Rice, Tebonnet) [5]; 0.0625 kg/ha",3.0
same,Herbicidal rating ORYSAT (rice tolerance),"ORYSAT (Rice, Tebonnet) [5]; 0.1250 kg/ha",4.0
same,Herbicidal rating ORYSAT (rice tolerance),"ORYSAT (Rice, Tebonnet) [5]; 0.2500 kg/ha",6.0
same,Herbicidal rating ORYSAT (rice tolerance),"ORYSAT (Rice, Tebonnet) [6]; rate 0.0313 kg/ha, flooded paddy, post-transplant rice, 3-4 weeks after treatment",3.0
same,Herbicidal rating ORYSAT (rice tolerance),"ORYSAT (Rice, Tebonnet) [6]; rate 0.0625 kg/ha, flooded paddy, post-transplant rice, 3-4 weeks after treatment",3.0
same,Herbicidal rating ORYSAT (rice tolerance),"ORYSAT (Rice, Tebonnet) [6]; rate 0.1250 kg/ha, flooded paddy, post-transplant rice, 3-4 weeks after treatment",4.0
same,Herbicidal rating ORYSAT (rice tolerance),"ORYSAT (Rice, Tebonnet) [6]; rate 0.2500 kg/ha, flooded paddy, post-transplant rice, 3-4 weeks after treatment",6.0
"2-{{2-Chloro-5-[3,6-dihydro-3-methyl-2,6-dioxo-4-(trifluoromethyl)-1(2H)-pyrimidinyl]-4-fluoro-phenyl}imino}-4-oxo-3,5-thiazolidenediacetic acid, 3-ethyl (2-propynyl) ester, (2:1) mixture with di-2-propynyl ester [Compound 58]",Postemergence herbicidal rating CASOB,CASOB (Sicklepod); Rate 0.0158 kg/ha,0.0
same,Postemergence herbicidal rating CASOB,CASOB (Sicklepod); Rate 0.0315 kg/ha,2.0
same,Postemergence herbicidal rating CASOB,CASOB (Sicklepod); Rate 0.0630 kg/ha,3.0
same,Postemergence herbicidal rating CHEAL,[1]; Rate 0.0158 kg/ha,9.0
same,Postemergence herbicidal rating CHEAL,[1]; Rate 0.0315 kg/ha,9.0
same,Postemergence herbicidal rating CHEAL,[1]; Rate 0.0630 kg/ha,9.0
same,Postemergence herbicidal rating TRZAWR,[2]; Rate 0.0158 kg/ha,5.0
same,Postemergence herbicidal rating TRZAWR,[2]; Rate 0.0315 kg/ha,5.0
same,Postemergence herbicidal rating TRZAWR,[2]; Rate 0.0630 kg/ha,7.5
same,ORYSAT herbicidal effect rating (rice tolerance),"ORYSAT (Rice, Tebonnet) [5]",4.0
same,Herbicidal rating MOOVA,MOOVA (Monochoria); rate 0.0313 kg/ha,0.0
same,Herbicidal rating MOOVA,MOOVA (Monochoria); rate 0.0625 kg/ha,0.0
same,Herbicidal rating MOOVA,MOOVA (Monochoria); rate 0.1250 kg/ha,3.0
same,Herbicidal rating MOOVA,MOOVA (Monochoria); rate 0.2500 kg/ha,9.0
"CCOC(=O)CN1C(=O)C(COC)SC1=Nc1cc(-n2c(=O)cc(C(F)(F)F)n(C)c2=O)c(F)cc1Cl (stereo not shown) [Compound 156, Ethyl 2-{{2-chloro-5-[3,6-dihydro-3-methyl-2,6-dioxo-4-(trifluoromethyl)-1(2H)-pyrimidinyl]-4-fluorophenyl}imino}-5-(methoxymethyl)-4-oxo-3-thiazolidine-acetate]",Herbicidal rating CASOB,CASOB (Sicklepod); rate 0.0156 kg/ha,0.0
same,Herbicidal rating CASOB,CASOB (Sicklepod); rate 0.0313 kg/ha,0.0
same,Herbicidal rating CASOB,CASOB (Sicklepod); rate 0.0625 kg/ha,1.0
same,Herbicidal rating CHEAL,[1]; rate 0.0156 kg/ha,9.0
same,Herbicidal rating CHEAL,[1]; rate 0.0313 kg/ha,9.0
same,Herbicidal rating CHEAL,[1]; rate 0.0625 kg/ha,9.0
same,Herbicidal rating TRZAWR,[2]; rate 0.0156 kg/ha,3.0
same,Herbicidal rating TRZAWR,[2]; rate 0.0313 kg/ha,3.5
same,Herbicidal rating TRZAWR,[2]; rate 0.0625 kg/ha,4.0
same,Preemergence herbicidal rating CHEAL,[3]; [7],9.0
same,Preemergence herbicidal rating CHEAL,[3]; [8],9.0
same,Preemergence herbicidal rating CHEAL,[3]; [9],9.0
same,Preemergence herbicidal rating CHEAL,[3]; [10],9.0
same,Preemergence herbicidal rating ORYSAT,"ORYSAT (Rice, Tebonnet) [4]; [7]",0.0
same,Preemergence herbicidal rating ORYSAT,"ORYSAT (Rice, Tebonnet) [4]; [8]",0.0
same,Preemergence herbicidal rating ORYSAT,"ORYSAT (Rice, Tebonnet) [4]; [9]",0.0
same,Preemergence herbicidal rating ORYSAT,"ORYSAT (Rice, Tebonnet) [4]; [10]",3.0
same,"herbicidal effect rating, ORYSAT (rice tolerance)","ORYSAT (Rice, Tebonnet) [5]",3.0
"CN(C)c1ccc(CN2C(=O)CSC2=Nc2cc(-n3c(=O)cc(C(F)(F)F)n(C)c3=O)c(F)cc2Cl)cc1 [Compound 138, 3-{4-Chloro-5-{{3-[p-(dimethylamino)benzyl]-4-oxo-2-thiazolidinylidene}amino}-2-fluorophenyl}-1-methyl-6-(trifluoromethyl)-2,4(1H,3H)-pyrimidinedione]",Herbicidal rating CASOB,CASOB (Sicklepod); rate 0.0156 kg/ha,0.0
same,Herbicidal rating CASOB,CASOB (Sicklepod); rate 0.0313 kg/ha,1.0
same,Herbicidal rating CASOB,CASOB (Sicklepod); rate 0.0625 kg/ha,6.0
same,Herbicidal rating CHEAL,[1]; rate 0.0156 kg/ha,9.0
same,Herbicidal rating CHEAL,[1]; rate 0.0313 kg/ha,9.0
same,Herbicidal rating CHEAL,[1]; rate 0.0625 kg/ha,9.0
same,Herbicidal rating TRZAWR,[2]; rate 0.0156 kg/ha,2.5
same,Herbicidal rating TRZAWR,[2]; rate 0.0313 kg/ha,3.0
same,Herbicidal rating TRZAWR,[2]; rate 0.0625 kg/ha,3.0
same,Preemergence herbicidal rating CHEAL,[3]; [11],1.0
same,Preemergence herbicidal rating CHEAL,[3]; [7],9.0
same,Preemergence herbicidal rating CHEAL,[3]; [8],7.0
same,Preemergence herbicidal rating CHEAL,[3]; [9],9.0
same,Preemergence herbicidal rating CHEAL,[3]; [10],9.0
same,Preemergence herbicidal rating ORYSAT,"ORYSAT (Rice, Tebonnet) [4]; [11]",0.0
same,Preemergence herbicidal rating ORYSAT,"ORYSAT (Rice, Tebonnet) [4]; [7]",0.0
same,Preemergence herbicidal rating ORYSAT,"ORYSAT (Rice, Tebonnet) [4]; [8]",0.0
same,Preemergence herbicidal rating ORYSAT,"ORYSAT (Rice, Tebonnet) [4]; [9]",0.0
same,Preemergence herbicidal rating ORYSAT,"ORYSAT (Rice, Tebonnet) [4]; [10]",0.0
same,"herbicidal effect rating, ORYSAT (rice tolerance)","ORYSAT (Rice, Tebonnet) [5]",3.0
